Reference: patent US12661353B2, “SPT5 inhibitors and uses thereof” (Yeda Research and Development Co. Ltd., priority 2020, dated 2026)

Test system: A20 mRNA
Assay: Splicing of A20: mature/immature transcripts, RT-qPCR
Format: cell-based, human
Conditions: following TNFα induction, 50 μM
Description: Bars represent the mean of at least 3±SEM independent experiments. The asterisks denote statistical significance differences relative to DMSO+TNFα control according to Student's t tests (typically one tailed, paired): *p<0.05; **p<0.01; ***p<0.005; ****p<0.001. […] Shown are mRNA levels of A20 (normalized to GAPDH) in Hela cells treated with SPI-21 and TNFα and incubated with actinomycin D for the indicated time points, as determined by real-time qPCR. The data points present the mean of 3±SEM independent experiments. […] Shown are levels of mature and immature transcripts in cells incubated for 1 hour with DMSO (vehicle control) or 50 μM of SPI-21 or SPI-18 followed by treatment with TNFα for an additional one hour, as determined by real-time qPCR using primers spanning exons 3 and 4 (mature, black arrows shown in the scheme of G, SEQ ID NOs: 47 and 48) or intron 1 and exon 2 (immature, red arrows shown in the scheme of G, SEQ ID NOs: 49 and 50). […] DMSO (vehicle control), SPI-21 or SPI-18 treated cells were induced by TNFα for the indicated times and the levels of IκBα and β-Tubulin proteins were analyzed by western blot as indicated. […] The occupancy of the A20 gene was analyzed by qPCR using primers from the first (A, SEQ ID NOs: 55 and 56), third (B, SEQ ID NOs: 57 and 58) and last (C, SEQ ID NOs: 59 and 60) exon-intron junctions. […]

Row | Compound | mature/immature A20 mRNA ratio
1 | Nc1ccccc1SC(CC(=O)c1cccs1)c1cccs1 (centres unmarked) [SPI-18] | clear decrease in mature/immature ratio
2 | COc1ccc(C=CC(=O)c2cc(O)ccc2O)cc1 [SPI-21] | clear decrease in mature/immature ratio
